In data set [1] the test system is mammalian target of rapamycin (mTOR). Kind of data set: Immunohistochemistry of p-4EBP1 and p-S6R in bone marrow biopsies pre- and post-everolimus. It counts as in vivo, human. An excerpt:
Bone marrow biopsies from WM patients at pretreatment and at the end of therapy were fixed in Zenker's formalin, embedded in paraffin blocks, and sectioned. Sections were stained for phospho(p)-4EBP1 and p-S6R (Cell Signaling Technology, Inc.). Signal quantification for each target was obtained from four different areas, on matched pre- and post-everolimus treatment of 4 patients presenting with partial response; and on matched pre- and post-everolimus treatment of 3 patients presenting with stable disease. Numbers of positive cells were obtained on 4 different fields of the bone marrow biopsy, and average and standard deviation provided, as previously described (Fingar D. C. et al., Mol. Cell. Biol., 24(1):200-16 (2004).
In contrast, everolimus-dependent modulation of phosphorylated ribosomal protein S6 (phospho(p)-S6R) and p-4EBP1 was not observed in those patients with stable disease (FIG. 9C).

Data set [2] has as its system primary WM bone-marrow derived CD19+ cells. In words: MTT cytotoxicity on primary WM cells. Type of data set: cell-based, human. Conditions: 0.1-10 nM, 48 hours, 4 patients with relapsed/refractory WM. The method, then: Next, it was sought to determine the underlying mechanisms that led to everolimus-dependent anti-tumor effect in WM. The activity of everolimus in targeting WM cells was tested in primary WM CD19^+ cells, and WM and IgM secreting lymphoma cell lines (BCWM1; MWCL.1; RL), as well as in normal PBMC-derived CD19^+ cells. […] Everolimus-induced toxicity in WM and IgM secreting lymphoma cell lines was subsequently validated.

Data set [3] has as its system BCWM.1 cells. In words: MTT cytotoxicity assay. Type of data set: cell-based, human. For orientation: Tetrazolium dyes change colour on reduction, which living cells bring about.
In data set [4] the test system is BCWM.1 cells. In words: Thymidine uptake cell proliferation assay. It counts as cell-based, human. Conditions: 0.01-40 nM, 48 hours.
Data set [5] deals with mTOR. Kind of data set: Western blot of p-mTOR, p-p70S6K, p-4EBP1 in BCWM.1 and MWCL.1 cells. It counts as cell-based, human. The conditions noted are these: 0.1-10 nM, 6 hours. (In western blotting, separated proteins are transferred to a membrane and probed.)
Protocol: (§2) WM and IgM secreting cell lines were harvested and lysed using lysis buffer (Cell Signaling Technology, Beverly, Mass.) reconstituted with 5 mM NaF, 2 mM Na3VO4, 1 mM PMSF (polymethilsulfonyl fluoride), 5 μg/mL leupeptine, and 5 μg/mL aprotinin. Whole-cell lysates (50 μg/lane) were subjected to sodium dodecyl sulfate-polyacrylamide gel eletrophoresis (SDS-PAGE) and transferred to polyvinyldene fluoride (PVDF) membrane (Bio-Rad Laboratories, Hercules, Calif.). The antibodies used for immunoblotting included: anti-caspase3-, -caspase-9, -PARP, phospho (p)-mTOR, p-p70S6K, p-4EBP1, p-FAK-cyclinD1, -cyclinD2-p27^Kip1, -p21^Cip1, p-Akt, -Akt, pERK, -ERK, p-GSK3, -p-STAT3, -p-p65, -p-p50, -p-IkB, -nucleolin and -tubulin antibodies (Cell Signaling, Danvers, Mass.).
In data set [6] the test system is WM-WSU, RL, MWCL.1 cells. In words: MTT cytotoxicity on IgM low-grade lymphoma cells. It counts as cell-based, human. The conditions noted are these: 0.01-40 nM, 48 hours.
Data set [7] concerns primary peripheral blood-derived CD19+ cells. In words: MTT cytotoxicity on healthy donor cells. Type of data set: cell-based, human. The conditions noted are these: healthy individuals, 60-1000 nM, 48 hours.
Data set [8] deals with BCWM.1 cells. In words: Cell cycle analysis, PI staining and flow cytometry. Type of data set: cell-based, human. Conditions: for cells in S phase: 12 hours (control 36.29%); for G1 phase BCWM.1 cells: 12 hours (control 52.52%). (In general: Flow cytometry measures light scatter and fluorescence of single cells or particles in a stream.)
Data set [9] has as its system BCWM.1 cells. In words: Immunoblotting of cyclin D1, cyclin D2, p27Kip1, p21Cip1. It counts as cell-based, human. The conditions noted are these: 0.1-10 nM, 12 hours.
Protocol: as §2
In data set [10] the test system is WM and IgM low-grade lymphoma cells (BCWM.1; MWCL.1; RL). Kind of data set: DNA fragmentation (Cell Death Detection ELISA), apoptosis. The conditions noted are these: 0.1-10 nM, 24 hours. Type of data set: cell-based, human. An excerpt: Cell Death Detection ELISA (Roche Applied Science, Indianapolis, Ind.) was used to quantify DNA fragmentation, as per the manufacturer's instructions, and as previously described (Sacco A. et al., Clin Cancer Res., 17(7):1753-64 (2011)).

Data set [11] deals with BCWM.1 and MWCL.1 cells. In words: Caspase-9, caspase-3 and PARP cleavage (Western blot, Caspase 3/7 Glo Assay). It counts as cell-based, human. The conditions noted are these: 0.1-10 nM, 24 hours. The protocol:
WM cell lines have been exposed to everolimus (0.1-10 nM) for 24 hours and caspase activation has been assessed using Caspase 3/7 Glo Assay (Promega, Madison, Wis.), according to manufacturer's procedure.

The test system of data set [12] is miRNA-155. In words: qRT-PCR of miRNA-155 level in WM cell lines. Type of data set: cell-based, human. The conditions noted are these: BCWM.1; MWCL.1; 0.1-1-10 nM, 12 hours. The protocol:
qRT-PCR for miRNA-155 (TaqMan microRNA Assays, Applied Biosystems, Foster City, Calif.) was performed on an Applied Biosystems AB7500 Real Time PCR system.

For data set [13], the system named is BCWM.1 and MWCL.1 cells. In words: MTT cytotoxicity in miRNA-155 knockdown probe-transfected WM cell lines. It counts as cell-based, human. Conditions: 0.1-1-10 nM, 48 hours, knockdown probe vs scramble probe.
Data set [14] deals with BMSCs. In words: MTT viability of BMSCs. Type of data set: cell-based, human. The conditions noted are these: 0.1-10 nM, 48 hours. The method, then:
(§1) The bone marrow (BM) microenvironment confers growth and induces drug resistance in malignant cells (Mitsiades C. S. et al., Eur. J. Cancer., 42(11):1564-73 (2006)). It was therefore sought to determine the anti-tumor activity of everolimus in the presence of the BM microenvironment. It was first investigated whether everolimus inhibits WM cell growth in the context of the BM milieu. BCWM.1 cells were exposed to everolimus (0.1-10 nM) in the presence or absence of BMSCs for 48 hours. The viability of BMSCs assessed by MTT was not affected by everolimus treatment (data not shown). […] Next, the efficacy of everolimus in affecting migration and adhesion of WM cells was evaluated. […] To study the effect of everolimus on the migration of WM cells, BCWM.1 cells were incubated with everolimus (0.01-1 nM) for 4 hours. […] Cells were then subjected to migration as previously reported (Roccaro A. M. et al., Blood, 113(26):6669-80 (2009)).

The subject of data set [15] is BCWM.1 cells. Kind of data set: [3H]-TdR uptake of BCWM.1 cells adherent to BMSCs. It counts as cell-based, human. Conditions: 0.1-10 nM, 48 hours. The method, then: as §1
The test system of data set [16] is BCWM.1 cells. Kind of data set: Transwell migration assay towards SDF-1. Type of data set: cell-based, human. Conditions: 0.01-1 nM, 4 hours, 30 nM SDF-1. The method, then: Transwell migration assay (Costar; Corning, Acton, Mass.) was performed using BCWM.1 cells in the presence or absence of 30 nM SDF-1, as described (Azab A. K., et al., Blood, 114(3):619-29 (2009)).
as §1

The subject of data set [17] is WM and IgM low grade lymphoma cell lines (BCWM.1, MWCL.1 and RL). In words: Adhesion to primary WM bone marrow stromal cells. The conditions noted are these: 0.01-1 nM. Type of data set: cell-based, human. The protocol: as §1
Data set [18] relates to BCWM.1 cells. In words: [3H]-thymidine uptake of BCWM.1 cells in presence of endothelial cells (HUVECs). Conditions: 0.01-10 nM, 48 hours. It counts as cell-based, human.
For data set [19], the system named is HUVECs. In words: Morphogenesis assay on Matrigel (capillary tubule formation). Type of data set: cell-based, human. The method, then:
Unpolymerized Matrigel (17 mg/mL; Becton Dickinson, Mountain View, Calif.) was placed (50 μL/well) in a 96-well microtiter plate (0.32 cm2/well) and polymerized for 1 hour at 37° C. HUVECs and MMECs (5×10^3 per well) in 200 μL of DMEM/10% FCS (positive control), serum-free medium (negative control), as well as in the presence or absence of everolimus (0-0.01-0.1-1-10 nM) were layered onto the Matrigel surface. After 6 hours of incubation in a 5% CO2 humidified atmosphere at 37° C., cell growth and tridimensional organization were observed using a reverted phase-contrast light microscope, as described (Roccaro A. M. et al., Cancer Res., 66(1):184-91 (2006)).

Data set [20] relates to NF-κB p65. In words: NF-κB p65 DNA-binding activity (Active Motif TransAM) in nuclear extracts. Type of data set: cell-based, human. Conditions: BCWM.1 and MWCL.1; everolimus 1 nM or bortezomib 5 nM, 4 hours; TNF-α 10 ng/mL. An excerpt: NF-κB activity was investigated using the Active Motif TransAM kits, a DNA-binding enzyme-linked immunosorbent assay (ELISA)-based assay (Active Motif North America, Carlsbad, Calif.).

Data set [21] relates to BCWM.1 cells. The conditions noted are these: everolimus 0.5 nM alone, 48 hours.
For data set [22] the following is noted: patients with relapsed or refractory WM, oral; cited from earlier work.
For data set [23], the system named is BCWM.1 cells. Kind of data set: Western blot of p-4EBP1 and p-70S6K in BCWM.1 cells cultured with HUVECs. The conditions noted are these: 0.01-10 nM, 6 hours.
Protocol: as §2
It was next sought to determine the effect of everolimus on modulating vessel formation. […] The impact of everolimus to target WM cells in presence of endothelial cells was next evaluated at signaling level.
Data set [24] concerns BCWM.1 cells. Kind of data set: Antibody-dependent cell-mediated cytotoxicity assay (ADCC). It counts as cell-based, human. Conditions: E/T ratio of 10:1; rituximab 10 μg/mL, everolimus 1 nM, bortezomib 5 nM. The method, then:
Briefly, interleukin-2 (IL-2; R&D, Minneapolis, Minn.)-activated PBMCs were used as effector cells and calcein-AM-labeled BCWM.1 cell line, as targets. PBMCs were separated from leukopheresis products from healthy donors over Ficoll-Hypaque solution after informed consent. Effector cells were used immediately at 37° C. in RPMI complete media after being activated with IL-2 (100 UI/mL for 36 hours). Target cells were labeled with calcein-AM for 1 hour at 37° C., washed thrice, and plated in triplicate in 96-well plates (5000 cells per well). ADCC was performed in the presence of rituximab (10 μg/mL) or human control IgG1 (2 ng/mL) at various effector-target (E/T) ratios (10:1, 20:1, and 40:1). The 96-well plates were centrifuged at 30 g for 2 minutes at room temperature, followed by a 4-hour incubation at 37° C. Culture supernatants were transferred to a Black ViewPlate-96 plate and read on Wallac VICTOR2 using 492/520 nm filter set (Perkin Elmer). Combinatory studies using everolimus (1 nM), Bortezomib (5 nM) and Rituximab (10 μg/mL) were also performed. This assay was valid only if (mean maximum release−medium control release)/(mean spontaneous release−medium control release) was more than 7. Spontaneous release is the CPM in the supernatant from wells containing target cells alone. Maximum release is the supernatants of wells containing target cells and Triton X-100. […]

On to `CO[C@H]1C[C@@H]2CC[C@@H](C)[C@@](O)(O2)C(=O)C(=O)N2CCCC[C@H]2C(=O)O[C@H]([C@H](C)C[C@@H]2CC[C@@H](OCCO)[C@H](OC)C2)CC(=O)[C@H](C)/C=C(\C)[C@@H](O)[C@@H](OC)C(=O)[C@H](C)C[C@H](C)/C=C/C=C/C=C/1C` [everolimus, 40-O-(2-hydroxyethyl) derivative of sirolimus (rapamycin)], for which, in data set [1] (patients with partial response, pre- vs post-everolimus), the “phosphorylation of S6R and 4EBP1 in bone marrow biopsies” value was “inhibition of phosphorylation”. Besides, the “modulation of p-S6R and p-4EBP1 in bone marrow biopsies” value in [1] (patients with stable disease) was “not observed”. In data set [2], the cytotoxic effect entry was “significantly induced toxicity in all the 4 samples”. Moreover, in [3] (0.01-1 nM, 4 hours), the “cytotoxicity at doses used for migration” value is “did not induce cytotoxicity”. For the same molecule, the cytotoxicity result in [3] (0.01-40 nM, 48 hours) is recorded as “inducing cytotoxicity in a dose-dependent manner”. Besides, the cell proliferation entry in data set [4] is “inhibiting cell proliferation”. For the same molecule, in [5], the “p-mTOR, p-p70S6K and p-4EBP1” value is “inhibition”. Further, the cytotoxicity entry in data set [6] was “induction of cytotoxicity was validated”. The cytotoxicity entry in data set [7] was “did not show cytotoxicity”. For the same molecule, in data set [8] (0.1 nM everolimus), the “cells in S phase” value turned out to be 29.14% and the “G1 phase BCWM.1 cells” value is 61.25%. Moreover, in [8] (1 nM everolimus), the “cells in S phase” value is on record as 21.71% and the “G1 phase BCWM.1 cells” value was 70.98%. Moreover, the cell cycle progression entry in [8] (0.1-10 nM, 12 hours) is recorded as “cell cycle arrest”. For the same molecule, in data set [9], the “cyclin D1 and cyclin D2” value is “down-regulation”; the “cyclin kinase inhibitor proteins p27Kip1, p21Cip1” value is given as “up-regulation”. The “apoptosis (DNA fragmentation)” value in data set [10] is on record as “induced apoptosis in a dose-dependent manner”. In data set [11], the “caspase-9, -3 and PARP cleavage” value is “induced caspase-9, -3 and PARP cleavage in a dose dependent manner”. The miRNA155 level entry in data set [12] is “inhibited miRNA155 level in a dose-dependent manner”. Moreover, the “everolimus-dependent induction of toxicity after miRNA155 knock down” value in [13] is given as “partially inhibited by knocking down miRNA155”. Moreover, the “viability of BMSCs” value in data set [14] is “not affected”. The “BMSC-triggered proliferation of BCWM.1 cells” value in data set [15] is reported as “inhibited by everolimus in a dose-dependent manner”. Also, the “migration towards SDF-1” value in data set [16] is given as “inhibited WM cell migration towards SDF-1, in a dose-dependent manner”. Also, in [16] (listed as Everolimus), the “migration towards SDF-1” value is “inhibited SDF-1-induced migration”. In [17], the “cell adhesion to primary WM bone marrow stromal cells” value is reported as “inhibited WM cell adhesion in a dose-dependent manner”. Further, the “WM cell proliferation in presence of endothelial cells” value in data set [18] is given as “reduced WM cell proliferation, despite the presence of endothelial cells”. Further, the capillary formation entry in [19] (1 nM everolimus) is “almost complete inhibition of capillary formation”. The “endothelial cell morphogenesis on Matrigel” value in [19] (0.01-10 nM) was “inhibited endothelial cell morphogenesis on Matrigel in a dose-dependent manner”. Also, the “TNF-α-induced NF-κB recruitment to the nucleus, single agents” value in [20] was “similarly inhibited”. Besides, the “cytotoxicity, % of BCWM.1 cells” value in data set [21] was 24%. In data set [22], the minor response was 28%, the overall response rate is given as 70% and the “partial response (PR)” value is 42%. For the same molecule, in [23], the “endothelial cell-dependent phosphorylation of 4EBP1 and 70SK in WM cells” value is “inhibited endothelial cell-dependent phosphorylation of 4EBP1 and 70SK”.

For the molecule “rituximab: the anti-CD20 antibody, rituximab”, the specific lysis in data set [24] is 37.7%.

The values are drawn from patent publication US9944991B2, “Compositions and methods for diagnosis, prognosis and treatment of hematological malignancies” (Dana-Farber Cancer Institute, Inc., priority 2012, dated 2018).
